The values that follow are results of earlier work, collected in publication PMC9096979 (ACS Omega, 2022).

The series has as its target myotoxin II (Bothrops asper, UniProt P24605).

Sequence of myotoxin II (P24605 17-137 limits assumed): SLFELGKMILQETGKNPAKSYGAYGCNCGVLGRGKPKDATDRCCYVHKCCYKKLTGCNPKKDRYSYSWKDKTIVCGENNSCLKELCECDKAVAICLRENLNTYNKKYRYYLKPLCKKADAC

For the compound `Cc1ccc(C(=O)Nc2ccc(S(=O)(=O)O)c3cc(S(=O)(=O)O)cc(S(=O)(=O)O)c23)cc1NC(=O)c1cccc(NC(=O)Nc2cccc(C(=O)Nc3cc(C(=O)Nc4ccc(S(=O)(=O)O)c5cc(S(=O)(=O)O)cc(S(=O)(=O)O)c45)ccc3C)c2)c1` [suramin], the “inhibition of myotoxin II, in words” value is given as “capable of inhibiting myotoxin II”.
